From patent US12404242B2, “Compositions and methods for making and using small molecules in the treatment of cancer” (Reglagene, Inc., priority 2021, dated 2025)

What was measured:
Format in all cases: cell-based, human
22RV1 cells = experiment: Cell viability (AlamarBlue), 22RV1 prostate cancer cells; set-up: key to EC50 (μM) in 22RV1 cells: Inactive: less than 50% inhibition at the highest concentration tested at 50 μM; settings: 72 hours of treatment; for EC50: Homo sapiens, 22Rv1, 72 h
Experimental: (§1) In another exemplary method, half maximal effective concentration (EC50) was determined for some compounds and their isomers as disclosed herein in a variety of human cancer cell lines. In brief, cells from two prostate cancer cell lines (LNCaP, 22RV1), one glioblastoma cell line (U87), one breast cancer cell line (MCF7), a glioma cell line (LN18), a normal prostate cell line (RWPE1), and a glioblastoma cell line (T98G) were plated in a multi-well plate. After 24 hours, one of the compounds herein was added to the well at increasing concentrations. After 72 hours of treatment, cell viability was assessed using AlamrBlue® (Invitrogen) and fluorescence was read using the CLARIOstar Plus Multilabel Plate Reader (BMG Labtech). Samples were normalized to no treatment controls. EC50 values were determined using GraphPad Prism.

LNCaP cells = experiment: Cell viability (AlamarBlue), LNCaP prostate cancer cells; set-up: key to EC50 (μM) in LNCaP cells: Inactive: less than 50% inhibition at the highest concentration tested at 50 μM; settings: 72 hours of treatment
Experimental: as §1

U87 cells = experiment: Cell viability (AlamarBlue), U87 glioblastoma cells; set-up: key to EC50 (μM) in U87 cells: Inactive: less than 50% inhibition at the highest concentration tested at 50 μM; settings: 72 hours of treatment; for EC50: Homo sapiens, U-87 MG, 72 h
Experimental: as §1

Compound | EC50 (μM) in U87 cells (U87 cells) | EC50 (U87 cells) [µM] | other results
Cc1cc(NC(=O)NC(=O)C2CCOC2)ccc1Oc1ncc(Cl)cn1 (racemic) [Compound 5, rac-1-{4-[(5-chloropyrimidin-2-yl)oxy]-3-methylphenyl}-3-[(3R)-oxolane-3-carbonyl]urea] |  |  | EC50 (μM) in 22RV1 cells (22RV1 cells): Inactive; EC50 (μM) in LNCaP cells (LNCaP cells): Inactive
Cc1cc(NC(=O)NC(=O)C2CCCC2)ccc1Oc1ncc(Cl)cn1 [Compound 3, 1-{4-[(5-chloropyrimidin-2-yl)oxy]-3-methylphenyl}-3-cyclopentanecarbonylurea] |  |  | EC50 (μM) in 22RV1 cells (22RV1 cells): Inactive; EC50 (μM) in LNCaP cells (LNCaP cells): Inactive
COC1(C(=O)NC(=O)Nc2ccc(Oc3ccc(Cl)cn3)c(C)c2)CC1 [Compound 65, N-((4-((5-chloropyridin-2-yl)oxy)-3-methylphenyl)carbamoyl)-1-methoxycyclopropane-1-carboxamide] | Inactive |  | EC50 (μM) in 22RV1 cells (22RV1 cells): Inactive
COC1CC(C(=O)NC(=O)Nc2cc(C)c(Oc3ccc(F)cn3)c(F)c2)C1 (stereo not drawn) [Compound 72, N-((3-fluoro-4-((5-fluoropyridin-2-yl)oxy)-5-methylphenyl)carbamoyl)-3-methoxycyclobutane-1-carboxamide] |  | 1.1 | EC50 (22RV1 cells): 0.91 µM
COC1CC(C(=O)NC(=O)Nc2cc(C)c(Oc3ncccn3)c(F)c2)C1 (stereo not drawn) [Compound 74, N-((3-fluoro-5-methyl-4-(pyrimidin-2-yloxy)phenyl)carbamoyl)-3-methoxycyclobutane-1-carboxamide] |  | 2.5 | EC50 (22RV1 cells): 1.65 µM
COC1CCC(C(=O)NC(=O)Nc2ccc(Oc3ccc(C4CC4)cn3)c(C)c2)CC1 (stereo not drawn) [Compound 75, N-((4-((5-cyclopropylpyridin-2-yl)oxy)-3-methylphenyl)carbamoyl)-4-methoxycyclohexane-1-carboxamide] | Inactive |  | 
COC1CC(C(=O)NC(=O)Nc2cc(C)c(Oc3nccs3)c(F)c2)C1 (stereo not drawn) [Compound 77, N-((3-fluoro-5-methyl-4-(thiazol-2-yloxy)phenyl)carbamoyl)-3-methoxycyclobutanecarboxamide] |  | 22 | 
COC1CC(C)(C(=O)NC(=O)Nc2ccc(Oc3ccc(Cl)cn3)c(C)c2)C1 (stereo not drawn) [Compound 79, N-((4-((5-chloropyridin-2-yl)oxy)-3-methylphenyl)carbamoyl)-3-methoxy-1-methylcyclobutane-1-carboxamide] | Inactive |  | 
Cc1cc(NC(=O)NC(=O)C2CC(O)C2)ccc1Oc1ccc(Cl)cn1 (stereo not drawn) [Compound 80, N-((4-((5-chloropyridin-2-yl)oxy)-3-methylphenyl)carbamoyl)-3-hydroxycyclobutane-1-carboxamide] | Inactive |  | 
COC1CC1C(=O)NC(=O)Nc1ccc(Oc2ncc(Cl)cn2)c(C)c1 (stereo not drawn) [Compound 81, N-((4-((5-chloropyrimidin-2-yl)oxy)-3-methylphenyl)carbamoyl)-2-methoxycyclopropane-1-carboxamide] | Inactive |  | 
COC1CC1C(=O)NC(=O)Nc1ccc(Oc2ccc(Cl)cn2)c(C)c1 (stereo not drawn) [Compound 82, N-((4-((5-chloropyridin-2-yl)oxy)-3-methylphenyl)carbamoyl)-2-methoxycyclopropane-1-carboxamide] | Inactive |  | 
COC12CC(C(=O)NC(=O)Nc3ccc(Oc4nccs4)c(C)c3)(C1)C2 [Compound 83, 3-methoxy-N-((3-methyl-4-(thiazol-2-yloxy)phenyl)carbamoyl)bicyclo[1.1.1]pentane-1-carboxamide] |  | 0.33 | 
COC12CC(C(=O)NC(=O)Nc3ccc(Oc4ccc(F)cn4)c(C)c3)(C1)C2 [Compound 89, N-((4-((5-fluoropyridin-2-yl)oxy)-3-methylphenyl)carbamoyl)-3-methoxybicyclo[1.1.1]pentane-1-carboxamide] |  | 0.2 | 
